In ChEMBL document CHEMBL4715910, “Insights into non-peptide small-molecule inhibitors of the PD-1/PD-L1 interaction: Development and perspective” (Bioorg Med Chem, 2021):

system: Jurkat; test: Cytotoxicity against human Jurkat T cells assessed as reduction in cell viability; assay type: cell-based

Row | Structure (SMILES) | IC50 [nM]
1 | Cc1cc(CN[C@H](CO)C(=O)O)c(OCc2cccc(C#N)c2)cc1OCc1cccc(-c2ccc3c(c2)OCCO3)c1C | < 100

target: Programmed cell death protein 1/Programmed cell death 1 ligand 1 (Homo sapiens, UniProt Q15116+Q9NZQ7); test: Inhibition of PD-1/PDL1 (unknown origin) by ELISA; assay type: protein-complex assay
Sequence (Q15116 whole entry): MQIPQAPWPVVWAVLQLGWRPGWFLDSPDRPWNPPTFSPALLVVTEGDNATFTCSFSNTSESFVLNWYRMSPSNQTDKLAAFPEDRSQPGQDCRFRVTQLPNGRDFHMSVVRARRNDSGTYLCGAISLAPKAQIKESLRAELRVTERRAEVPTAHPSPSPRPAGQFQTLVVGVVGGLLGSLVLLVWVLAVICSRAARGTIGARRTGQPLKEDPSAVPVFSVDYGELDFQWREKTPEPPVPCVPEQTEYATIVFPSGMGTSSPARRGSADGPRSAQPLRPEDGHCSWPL
Sequence (Q9NZQ7 whole entry): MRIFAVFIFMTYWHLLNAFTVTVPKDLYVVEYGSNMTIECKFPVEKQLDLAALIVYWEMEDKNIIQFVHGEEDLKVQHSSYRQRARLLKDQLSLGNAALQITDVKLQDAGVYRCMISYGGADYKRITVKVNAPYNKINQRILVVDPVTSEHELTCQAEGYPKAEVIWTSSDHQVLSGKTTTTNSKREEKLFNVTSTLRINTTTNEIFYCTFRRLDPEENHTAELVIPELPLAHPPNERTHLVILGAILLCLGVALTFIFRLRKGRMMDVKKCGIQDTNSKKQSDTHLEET

Row | Structure (SMILES) | IC50 [nM]
2 | Cc1cc(C(=O)Nc2cccc(-c3ccccc3)c2C)ncc1CN1CCCC[C@H]1C(=O)O | ≤ 10
3 | Cc1cc(C(=O)Nc2cccc(-c3ccccc3)c2C)ncc1CNCCO | ≤ 10
4 | Cc1c(Nc2nccc3c(CN4CCCCC4C(=O)O)ccnc23)cccc1-c1ccccc1 (stereo not given) | ≤ 10
5 | Cc1cc(CNCCO)ccc1OCc1cccc(-c2cccc(COc3ccc(CNCCO)cc3C)c2C)c1C | ≤ 10
6 | Cc1c(Nc2nccc3ccc(CNCCO)nc23)cccc1-c1ccccc1 | ≤ 10
7 | Cc1c(COc2ccc(CN3CCCC[C@H]3C(=O)O)cc2Br)cccc1-c1cccc(COc2ccc(CN3CCCC[C@H]3C(=O)O)cc2Br)c1C | ≤ 10
8 | Cc1c(-c2ccccc2)cccc1-c1nc2cc(CNCCO)ccc2o1 | ≤ 10
9 | Cc1c(-c2ccccc2)cccc1-c1nc2cc(CN3CCCC[C@H]3C(=O)O)cc(C)c2o1 | ≤ 10

target: Programmed cell death 1 ligand 1 (Homo sapiens) (UniProt Q9NZQ7)
Sequence (Q9NZQ7 whole entry): as above
Description: Binding affinity to human PDL1 (18 to 134 residues) expressed in Escherichia coli BL21 (DE3) cells assessed as melting temperature by differential scanning fluorimetry (Rvb = 35.4 degreec)

Row | Structure (SMILES) | Tm [°C]
10 | COc1nc(OCc2cccc(-c3ccccc3)c2C)ccc1CNCCNC(C)=O | 48.4
